According to ChEMBL document CHEMBL1149090, “Synthesis of a potent transition-state inhibitor of 5'-deoxy-5'-methylthioadenosine phosphorylase” (J Med Chem, 2004):
Activity calls are given as the source filed them. No cut-off for these calls is given here.

Experiments:
[1] = test system: MOLT-4; test: Tested for inhibition of MOLT-4 cells proliferation in the presence of 3 uM MTA; assay type: functional, cell-based; conditions: Homo sapiens
[2] = test system: MOLT-4; test: Tested for inhibition of MOLT-4 cells proliferation in the presence of 100 nM methotrexate and 10 uM of the compound; not significant; assay type: functional, cell-based; conditions: Homo sapiens
[3] = biological target: T1, S-methyl-5'-thioadenosine phosphorylase (Homo sapiens, UniProt Q13126); test: Inhibitory concentration against Methylthioadenosine phosphorylase
T1 sequence (Q13126 whole entry): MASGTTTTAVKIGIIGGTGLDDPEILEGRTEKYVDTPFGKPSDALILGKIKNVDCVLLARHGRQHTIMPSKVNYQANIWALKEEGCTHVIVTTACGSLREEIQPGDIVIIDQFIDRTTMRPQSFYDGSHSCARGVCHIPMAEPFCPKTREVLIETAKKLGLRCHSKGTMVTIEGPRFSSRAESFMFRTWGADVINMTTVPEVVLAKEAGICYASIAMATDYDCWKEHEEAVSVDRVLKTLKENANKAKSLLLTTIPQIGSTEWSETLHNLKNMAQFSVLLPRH

[4] = test system: MOLT-4; test: Tested for inhibition of MOLT-4 cells proliferation up to 10 uM; No Inhibition; assay type: functional, cell-based; conditions: Homo sapiens

CSC[C@H]1N[C@@H](c2c[nH]c3c(N)ncnc23)[C@H](O)[C@@H]1O
IC50 [1]: 1000 nM
inhibition [2]: inactive
IC50 [3]: 1.2 nM
inhibition [4]: inactive
